Drawing on patent US12410160B2 (Gilead Sciences, Inc., priority 2021, dated 2025), this text covers IC50 and EC50 for 26 compounds.

As usually defined, the IC50 is the concentration needed to halve the response being measured. Read a low IC50 as higher potency. The EC50 is the concentration that produces a half-maximal response. Lower therefore signals higher potency in that assay.

One assay addresses human KHK-C (Homo sapiens (Human), UniProt P50053). Description: KHK Biochemical Assay (IC50), ADP-Glo, KHK-C. The following applies: average of at least two separate assays. Put shortly: (§1)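 His-tagged enzyme expressed in BL21 (DE3), Ni-NTA purified. Compounds, serially diluted 1:3 in DMSO, pre-incubated 30 min with enzyme in 50 mM Hepes pH 7.4, 140 mM KCl, 5 mM MgCl2, 0.01% Triton-X, then ATP and fructose added; 4 h at room temperature. ADP formation read by ADP-Glo luminescence.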

Assay [1] concerns the target KHK-C expressed in NRK-52E cells (Homo sapiens (Human), UniProt P50053). Description: KHK-C Cell-based Assay (EC50), NRK CTG, fructose-mediated ATP-depletion.
Description: Compounds were tested in a high-throughput 384-well assay format for their ability to attenuate fructose-mediated ATP-depletion in Normal Rat Kidney epithelial cells (NRK-52E) using the Cell-Titer Glo (CTG) assay, which measures cellular ATP levels based on luminescence signal by using the luciferase-luciferin system. Compounds were serially diluted (1:3) in DMSO.
The plates were incubated at 37° C., 5% CO2 for one day. Cells were then transduced on day 2 with 200 MOI of Adenovirus (VQAd KHKC C-(K)-DYK ViraQuest Inc.) using the same medium and method as day-1 to induce KHK-C expression in the cells. Cells were incubated at 37° C., 5% CO2 for one day. On day-3, the medium was changed to DMEM medium (Corning, Catalog #10-014-CM) with 0.5% FBS and Penicillin-Streptomycin after washing the cells twice with sterile PBS on the BioTEK EL406 washer and dispenser. Test compounds were then diluted 200-fold into the assay plates using the BioMek FX and were incubated for 1 hour at 37° C., 5% CO2. 25 mM (final concentration) of fructose was then dispensed into the plates using the BioTEK EL406 dispenser and the plates were incubated at 37° C., 5% CO2 for 48 hours before addition of CTG reagent and measurement of luminescence signal.
The next assay deals with human KHK-A (Homo sapiens (Human), UniProt P50053). Description: KHK Biochemical Assay (IC50), ADP-Glo, KHK-A. The note with it: average of at least two separate assays. Put shortly:
as §1

human KHK-A, sequence (P50053 other isoform, or with tags, fused parts or gaps): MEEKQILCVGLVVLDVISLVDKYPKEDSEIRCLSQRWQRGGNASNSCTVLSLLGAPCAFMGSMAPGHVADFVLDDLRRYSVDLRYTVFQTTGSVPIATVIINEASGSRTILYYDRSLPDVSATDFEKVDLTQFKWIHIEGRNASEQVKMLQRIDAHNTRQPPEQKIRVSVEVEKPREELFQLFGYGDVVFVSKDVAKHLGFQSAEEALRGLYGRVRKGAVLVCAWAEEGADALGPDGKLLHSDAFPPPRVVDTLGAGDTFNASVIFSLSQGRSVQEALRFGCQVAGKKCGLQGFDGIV
KHK-C expressed in NRK-52E cells, sequence (P50053 whole entry): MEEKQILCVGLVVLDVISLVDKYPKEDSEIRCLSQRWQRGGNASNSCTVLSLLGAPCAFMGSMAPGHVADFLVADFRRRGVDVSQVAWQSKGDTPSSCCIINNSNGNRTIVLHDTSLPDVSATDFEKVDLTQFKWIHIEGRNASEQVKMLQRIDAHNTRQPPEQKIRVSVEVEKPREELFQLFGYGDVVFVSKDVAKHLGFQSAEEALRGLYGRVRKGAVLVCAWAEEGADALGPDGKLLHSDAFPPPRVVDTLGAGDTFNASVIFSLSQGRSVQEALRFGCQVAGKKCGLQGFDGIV
human KHK-C, sequence (P50053 whole entry): as above

Regarding `CC(O)c1cccc(-c2nc(N3CC[C@@H]3C)nc3c2CCC3)c1` (stereo partly drawn) [Example 276, 1-(3-(2-((S)-2-methylazetidin-1-yl)-6,7-dihydro-5H-cyclopenta[d]pyrimidin-4-yl)phenyl)ethan-1-ol], the half-inhibitory concentration (IC50) on human KHK-C (ADP-Glo) amounted to 69.5 nM; on human KHK-A (ADP-Glo) it was 66.6 nM. Further, a half-maximal effect in assay [1] (EC50) was put at 110 nM.
Turning to `C[C@H]1CCN1c1nc2c(c(-c3cccc(CCC(N)=O)c3)n1)CCC2` [Example 29], the IC50 on human KHK-C (ADP-Glo) worked out at 33 nM; against human KHK-A (ADP-Glo), 55.3 nM. The compound further gave an EC50 in assay [1] of 120 nM.
Consider `C[C@H]1CCN1c1nc(-c2cccc(N=[S@@](C)(N)=O)c2)c2c(n1)C(F)(F)CC2` (single isomer, unassigned) [Example 691], for which the half-maximal inhibitory concentration (IC50) against human KHK-C was 7.4 nM; against human KHK-A it was 7.5 nM. Moreover, the midpoint of the response in assay [1], the EC50, lay at 50.4 nM.
Regarding `C[C@H]1CCN1c1nc2c(c(-c3cccc(OC(F)F)c3)n1)CCC2` [Example 258, 4-[3-(difluoromethoxy)phenyl]-2-[(2S)-2-methylazetidin-1-yl]-6,7-dihydro-5H-cyclopenta[d]pyrimidine], the values for the IC50 on human KHK-C (ADP-Glo) and on human KHK-A (ADP-Glo) were 2850 nM and 2000 nM, respectively. Moreover, in assay [1], a half-maximal response (EC50) required 525 nM.
`C[C@H]1CCN1c1nc2c(c(-c3ccc4c(c3)CC(CC(=O)O)C4)n1)CCC2` (stereo partly drawn) [Example 134, 2-(5-(2-((S)-2-methylazetidin-1-yl)-6,7-dihydro-5H-cyclopenta[d]pyrimidin-4-yl)-2,3-dihydro-1H-inden-2-yl)acetic acid]: the IC50 on human KHK-C (ADP-Glo) was 89.9 nM; at human KHK-A (ADP-Glo) it was 158 nM. Further, the concentration for a half-maximal effect (EC50) in assay [1] stood at 1030 nM.
The corresponding values for `C[C@H]1CCN1c1nc2c(c(-c3ccc(S(N)(=O)=O)cc3)n1)CCC2` [Example 189, 4-[2-[(2S)-2-methylazetidin-1-yl]-6,7-dihydro-5H-cyclopenta[d]pyrimidin-4-yl]benzenesulfonamide] are 61.7 nM, 81.6 nM and 112 nM.
As to `C[C@H]1CCN1c1nc2c(c(-c3cccc(C(=O)NCCC(N)=O)c3)n1)CCC2` [Example 220, N-(3-amino-3-oxo-propyl)-3-[2-[(2S)-2-methylazetidin-1-yl]-6,7-dihydro-5H-cyclopenta[d]pyrimidin-4-yl]benzamide], the IC50 on human KHK-C (ADP-Glo) is 57.3 nM; on human KHK-A (ADP-Glo), 58.6 nM. In addition, it took 190 nM to reach a half-maximal effect in assay [1] (EC50).
For `Cc1ccc(-c2nc(N3CC[C@@H]3C)nc3c2CCC3)cc1C(N)=O` [Example 27, (S)-2-methyl-5-(2-(2-methylazetidin-1-yl)-6,7-dihydro-5H-cyclopenta[d]pyrimidin-4-yl)benzamide], the IC50 is 59.7 nM on human KHK-C (ADP-Glo) and 58.9 nM against human KHK-A (ADP-Glo). The compound also yielded an EC50 in assay [1] of 229 nM.
In the case of `C[C@H]1CCN1c1nc2c(c(-c3ccc(CC(N)=O)cc3)n1)CCC2` [Example 245, 2-[4-[2-[(2S)-2-methylazetidin-1-yl]-6,7-dihydro-5H-cyclopenta[d]pyrimidin-4-yl]phenyl]acetamide], the IC50 on human KHK-C (ADP-Glo) came to 80.3 nM; against human KHK-A (ADP-Glo), 73.6 nM. The EC50 in assay [1] was 374 nM.
Take `C[C@H]1CCN1c1nc2c(c(-c3ccc(C(N)=O)c(C(F)(F)F)c3)n1)CCC2` [Example 316, (S)-4-(2-(2-methylazetidin-1-yl)-6,7-dihydro-5H-cyclopenta[d]pyrimidin-4-yl)-2-(trifluoromethyl)benzamide]: the results for the IC50 on human KHK-C (ADP-Glo) and against human KHK-A (ADP-Glo) were 42.9 nM and 19 nM, respectively. This compound also showed an EC50 in assay [1] of 35 nM.
Consider `C[C@H]1CCN1c1nc2c(c(-c3ccc4c(ccn4C)c3)n1)CCC2` [Example 275, (S)-4-(1-methyl-1H-indol-5-yl)-2-(2-methylazetidin-1-yl)-6,7-dihydro-5H-cyclopenta[d]pyrimidine], for which the half-inhibitory concentration (IC50) against human KHK-C (ADP-Glo) is 618 nM; at human KHK-A (ADP-Glo) it was 1040 nM. Also, the EC50 in assay [1] was determined as 291 nM.
In the case of `COC(=O)[C@@H]1C[C@@]12C(=O)Nc1ccc(-c3nc(N4CC[C@@H]4C)nc4c3CCC4)cc12` (racemic) [Example 406, rac-methyl (1R,2R)-5′-(2-((S)-2-methylazetidin-1-yl)-6,7-dihydro-5H-cyclopenta[d]pyrimidin-4-yl)-2′-oxospiro[cyclopropane-1,3′-indoline]-2-carboxylate], the IC50 on human KHK-C is 1040 nM; against human KHK-A, 841 nM. Moreover, the EC50 in assay [1] worked out at 397 nM.
Take `C[C@H]1CCN1c1nc(-c2cccc(C(N)=O)c2)c2c(n1)[C@@H]1CC[C@H]2C1` [Example 63, 3-((5S,8R)-2-((S)-2-methylazetidin-1-yl)-5,6,7,8-tetrahydro-5,8-methanoquinazolin-4-yl)benzamide]: the IC50 was determined as 95.3 nM against human KHK-C (ADP-Glo) and 112 nM at human KHK-A (ADP-Glo). Besides, the EC50 in assay [1] was found to be 138 nM.
The corresponding values for `C[C@H]1CCN1c1nc(-c2ccccc2)c2c(n1)[C@@H]1C[C@@H]1C2` [Example 333, (5aR,6aR)-2-((S)-2-methylazetidin-1-yl)-4-phenyl-5,5a,6,6a-tetrahydrocyclopropa[4,5]cyclopenta[1,2-d]pyrimidine] are 1310 nM, 1310 nM and 1130 nM.
For `C[C@H]1CCN1c1nc2c(c(-c3ccc(CO)c(F)c3)n1)CCC2` [Example 370, [2-fluoro-4-[2-[(2S)-2-methylazetidin-1-yl]-6,7-dihydro-5H-cyclopenta[d]pyrimidin-4-yl]phenyl]methanol], the IC50 on human KHK-C (ADP-Glo) was 81.7 nM; against human KHK-A (ADP-Glo), 76.3 nM. In addition, in assay [1], the EC50 was determined as 117 nM.
Regarding `C[C@H]1CCN1c1nc2c(c(-c3ccc4cn[nH]c4c3)n1)CCC2` [Example 44, (S)-6-(2-(2-methylazetidin-1-yl)-6,7-dihydro-5H-cyclopenta[d]pyrimidin-4-yl)-1H-indazole], the figures for the IC50 against human KHK-C (ADP-Glo) and against human KHK-A (ADP-Glo) were 259 nM and 286 nM, respectively. In assay [1], the response was half-maximal at 329 nM (EC50).
For the compound `C[C@H]1CCN1c1nc(-c2ccc(C(N)=O)cc2)c2[nH]ncc2n1` [Example 396, (S)-4-(5-(2-methylazetidin-1-yl)-1H-pyrazolo[4,3-d]pyrimidin-7-yl)benzamide], the IC50 on human KHK-C worked out at 80 nM; on human KHK-A, 130 nM. The compound further gave a half-maximal effective concentration (EC50) in assay [1] of 2510 nM.
In the case of `C[C@H]1[C@H](O)CN1c1nc(-c2ccc3c(c2)COC[C@@]32CCC(=O)N2)c2c(n1)C(F)(F)CC2` (single isomer, unassigned) [Example 640], the IC50 against human KHK-C was 29.2 nM; against human KHK-A it was 38.8 nM. Besides, the EC50 in assay [1] is 280 nM.
Take `C[C@H]1CCN1c1nc2c(c(-c3ccc4[nH]ncc4c3)n1)CCC2` [Example 39, (S)-5-(2-(2-methylazetidin-1-yl)-6,7-dihydro-5H-cyclopenta[d]pyrimidin-4-yl)-1H-indazole]: the values for the IC50 against human KHK-C (ADP-Glo) and at human KHK-A (ADP-Glo) were 113 nM and 86.2 nM, respectively. This compound came in with an EC50 in assay [1] of 211 nM.
`N#CCC(N)c1ccc(-c2nc(N3CC[C@@H]3C(F)(F)F)nc3c2CCC3(F)F)cc1` (stereo partly drawn) [Example 803, 3-amino-3-(4-(7,7-difluoro-2-((R)-2-(trifluoromethyl)azetidin-1-yl)-6,7-dihydro-5H-cyclopenta[d]pyrimidin-4-yl)phenyl)propanenitrile]: the IC50 against human KHK-C (ADP-Glo) is 0.5 nM; on human KHK-A (ADP-Glo) it was 0.8 nM. Besides, the EC50 in assay [1] amounted to 11.3 nM.
For the compound `C[C@H]1CCN1c1nc2c(c(-c3cccc(C(=O)NCCC(=O)O)c3)n1)CCC2` [Example 217, 3-[[3-[2-[(2S)-2-methylazetidin-1-yl]-6,7-dihydro-5H-cyclopenta[d]pyrimidin-4-yl]benzoyl]amino]propanoic acid], the IC50 was determined as 90.3 nM against human KHK-C (ADP-Glo) and 130 nM at human KHK-A (ADP-Glo). This compound also registered an EC50 in assay [1] of more than 5000 nM.
The corresponding values for `C[C@H]1CCN1c1nc2c(c(-c3cnc(CN)s3)n1)CCC2` [Example 221, (S)-(5-(2-(2-methylazetidin-1-yl)-6,7-dihydro-5H-cyclopenta[d]pyrimidin-4-yl)thiazol-2-yl)methanamine] are 17.2 nM, 17.8 nM and 94.4 nM.
As to `C[C@H]1CCN1c1nc2c(c(-c3ccc(C45CC(C(=O)O)(C4)C5)cc3)n1)CCC2` [Example 249, 3-[4-[2-[(2S)-2-methylazetidin-1-yl]-6,7-dihydro-5H-cyclopenta[d]pyrimidin-4-yl]phenyl]bicyclo[1.1.1]pentane-1-carboxylic acid], the half-maximal inhibitory concentration (IC50) stood at 96.3 nM against human KHK-C (ADP-Glo) and 105 nM against human KHK-A (ADP-Glo). In addition, the EC50 in assay [1] is 517 nM.
For `NC(=O)c1ccc(-c2nc(N3CCCC3)nc3c2CCC3)cc1` [Example 142, 4-(2-(pyrrolidin-1-yl)-6,7-dihydro-5H-cyclopenta[d]pyrimidin-4-yl)benzamide], the IC50 worked out at 2430 nM against human KHK-C (ADP-Glo) and 2110 nM at human KHK-A (ADP-Glo). Further, in assay [1], the concentration for a half-maximal effect (EC50) stood at 2040 nM.
`C[C@H]1CCN1c1nc2c(c(-c3ccc4c(c3)[C@]3(C[C@H]3C#N)C(=O)N4)n1)CCC2` (mixture of isomers) [Example 410, rac-(1R,2R)-5′-(2-((S)-2-methylazetidin-1-yl)-6,7-dihydro-5H-cyclopenta[d]pyrimidin-4-yl)-2′-oxospiro[cyclopropane-1,3′-indoline]-2-carbonitrile]: the IC50 at human KHK-C was determined as 40.8 nM; at human KHK-A it was 37.6 nM. In assay [1], this compound gave an EC50 of 47.5 nM.
Consider `C[C@H]1CCN1c1nc2c(c(-c3cccc(C4(C(=O)O)CC4)c3)n1)CCC2` [Example 253, 1-[3-[2-[(2S)-2-methylazetidin-1-yl]-6,7-dihydro-5H-cyclopenta[d]pyrimidin-4-yl]phenyl]cyclopropanecarboxylic acid], for which the IC50 on human KHK-C (ADP-Glo) was found to be 239 nM; at human KHK-A (ADP-Glo), 204 nM. Also, a half-maximal effect in assay [1] (EC50) was put at 2770 nM.
